Here are results for four compounds from patent US20150105252A1, “SUBSTITUTED PYRAZOLES AS HERBICIDES” (E I DU PONT DE NEMOURS AND COMPANY, priority 2013, published 2015).

Assay [1] concerns bluegrass. Kind of assay: Test E preemergence. It is filed as in vivo, Poa annua. To be noted: 21 days, scale 0 to 100. An excerpt: (§1) Seeds of plant species selected from bermudagrass (Cynodon dactylon), Surinam grass (Brachiaria decumbens), crabgrass, large (large crabgrass, Digitaria sanguinalis), crabgrass, naked (naked crabgrass, Digitaria nuda), foxtail, green (green foxtail, Setaria viridis), johnsongrass (Sorghum halepense), kochia (Kochia scoparia), morningglory (pitted morningglory, Ipomoea lacunosa), nutsedge, purple (purple nutsedge, Cyperus rotundus), ragweed (common ragweed, Ambrosia elation), mustard, black (black mustard, Brassica nigra), guineagrass (Panicum maximum), dallisgrass (Paspalum dilatatum), barnyardgrass (Echinochloa crus-galli), sandbur (southern sandbur, Cenchrus echinatus), sowthistle (common sowthistle, Sonchus oleraceous), ryegrass, Italian (Italian ryegrass, Lolium multiflorum), signalgrass (broadleaf signalgrass, Brachiaria platyphylla), dayflower, VA (Virginia (VA) dayflower, Commelina virginica), bluegrass (annual bluegrass, Poa annua), quackgrass (Elytrigia repens), mallow (common mallow, Malva sylvestris), buckwheat, wild (wild buckwheat, Polygonum convolvulus), leafy spurge (Euphorbia esula), common chickweed (Stellaria media), wild poinsettia (Euphorbia heterophylla), pigweed, palmer (palmer pigweed, Amaranthus palmeri), and pigweed (redroot pigweed, Amaranthus retroflexus) were planted into a blend of loam soil and sand and treated preemergence with test chemicals formulated in a non-phytotoxic solvent mixture which included a surfactant.
(§2) Treated plants and controls were maintained in a greenhouse for 21 days, after which time all species were compared to controls and visually evaluated. Plant response ratings, summarized in Table E, are based on a scale of 0 to 100 where 0 is no effect and 100 is complete control. A dash (-) response means no test result.

Assay [2] has as its system bermudagrass. As to the kind of experiment: Test E preemergence. The class given is in vivo, Cynodon dactylon. To be noted: 21 days, scale 0 to 100.
Text: as §1, §2

The test system of assay [3] is kochia. Kind of assay: Test E preemergence. The class given is in vivo, Kochia scoparia. Particulars: 21 days, scale 0 to 100.
Text: as §1, §2

The subject of assay [4] is field bindweed. As to the kind of experiment: Test F postemergence. To be noted: scale 0 to 100. It is filed as in vivo, Convolvulus arvensis. An excerpt: Seeds of plant species selected from corn (Zea mays), soybean (Glycine max), velvetleaf (Abutilon theophrasti), lambsquarters (Chenopodium album), wild poinsettia (Euphorbia heterophylla), pigweed, palmer (palmer pigweed, Amaranthus palmeri), common waterhemp (Amaranthus rudis), surinam grass (Brachiaria decumbens), large crabgrass (Digitaria sanguinalis), crabgrass, Brazil (Brazilian crabgrass, Digitaria horizontalis), fall panicum (Panicum dichotomiflorum), giant foxtail (Setaria faberii), green foxtail (Setaria viridis), goosegrass (Eleusine indica), johnsongrass (Sorghum halepense), common ragweed (Ambrosia elation), barnyardgrass (Echinochloa crus-galli), southern sandbur (Cenchrus echinatus), arrowleaf sida (Sida rhombifolia), Italian ryegrass (Lolium multiflorum), dayflower, VA (Virginia (VA) dayflower, Commelina virginica), field bindweed (Convolvulus arvensis), cocklebur (common cocklebur, Xanthium strumarium), morningglory (Ipomoea coccinea), nightshade (eastern black nightshade, Solanum ptycanthum), kochia (Kochia scoparia), yellow nutsedge (Cyperus esculentus), and hairy beggarticks (Bidens pilosa), were planted into a silt loam soil and treated preemergence with test chemicals formulated in a non-phytotoxic solvent mixture which included a surfactant.
At the same time, plants from these crop and weed species and also horseweed (Canada horseweed, Conyza canadensis), smartweed (ladysthumb smartweed, Polygonum persicaria), waterhemp_RES1, (ALS & Triazine resistant common waterhemp, Amaranthus rudis), and waterhemp_RES2, (ALS & HPPD resistant common waterhemp, Amaranthus rudis) were treated with postemergence applications of test chemicals formulated in the same manner. Plants ranged in height from 2 to 18 cm for postemergence treatments (1- to 4-leaf stage). Treated plants and controls were maintained in a greenhouse for 14 to 21 days, after which time all species were compared to controls and visually evaluated. Plant response ratings, summarized in Table F, are based on a scale of 0 to 100 where 0 is no effect and 100 is complete control. A dash (-) response means no test result.

Assay [5] has as its system foxtail, green. As to the kind of experiment: Test E preemergence. It is filed as in vivo, Setaria viridis. To be noted: 21 days, scale 0 to 100.
Text: as §1, §2

Assay [6] has as its system blackgrass. Kind of assay: Test A postemergence. It is filed as in vivo, Alopecurus myosuroides. The gist of the method: (§3)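 Pre- and postemergence greenhouse test; loam+sand; cpd in non-phytotox. solvent/surfactant; post at 1–2 leaf, 2–10 cm; visual score ~10 d, 0 = none, 100 = complete control.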
The subject of assay [7] is Italian ryegrass. As to the kind of experiment: Test A preemergence. It is filed as in vivo, Lolium multiflorum. An outline of the steps:
as §3

Assay [8] concerns kochia. Kind of assay: Test A preemergence. It is filed as in vivo, Kochia scoparia. The gist of the method: as §3
The mark [9] stands for this setting: Postemergence, 500 g ai/ha, 0 to 100 scale (0 no effect, 100 complete control).
Setting [10] is: postemergence, 125 g ai/ha, about 10 days, visual rating on 0 to 100 scale (0 no effect, 100 complete control).
Where [11] appears, read: 125 g ai/ha, visual injury, 0 to 100 scale, approx. 10 days.
[12] abbreviates: 500 g ai/ha, visual injury after approx. 10 days, 0 to 100 scale (0 no effect, 100 complete control).
Setting [13] is: 125 g ai/ha, visual injury approx. 10 days after treatment.

In the case of `CCCc1cc(C(=O)NCC(F)(F)F)nn1Cc1ccnc(C(F)(F)F)c1` [Compound 105], the “Plant response rating, Bluegrass” value in assay [1] (16 g ai/ha) turned out to be 40; in assay [1] (31 g ai/ha) it was 70; in assay [1] (62 g ai/ha), 100; in assay [1] (125 g ai/ha), 100; in assay [1] (250 g ai/ha), 100. The “Plant response rating, Bermudagrass” value was determined as 70 in assay [2] (16 g ai/ha); 90 in assay [2] (31 g ai/ha); 98 in assay [2] (62 g ai/ha); 98 in assay [2] (125 g ai/ha); 100 in assay [2] (250 g ai/ha). Besides, the “Plant response rating, Kochia” value in assay [3] (16 g ai/ha), in assay [3] (31 g ai/ha), in assay [3] (62 g ai/ha), in assay [3] (125 g ai/ha) and in assay [3] (250 g ai/ha) was 100 throughout. The “Plant response rating, Field Bindweed” value was determined as 70 in assay [4] (Postemergence, 31 g ai/ha); 70 in assay [4] (Postemergence, 125 g ai/ha); 80 in assay [4] (Postemergence, 250 g ai/ha); 75 in assay [4] (postemergence, 62 g ai/ha); 90 in assay [4] (postemergence, 500 g ai/ha). For the same compound, the “Plant response rating, Foxtail, Green” value is listed as 95 in assay [5] (16 g ai/ha); 98 in assay [5] (31 g ai/ha); 100 in assay [5] (62 g ai/ha); 100 in assay [5] (125 g ai/ha); 100 in assay [5] (250 g ai/ha).

With `CCONC(=O)c1cc(CC)n(Cc2cc(C(F)(F)F)no2)n1` [Compound 125], the “Blackgrass plant response rating” value is 90 in assay [6] (setting [9]) and 30 in assay [6] (setting [10]). The “Italian Ryegrass plant response rating” value was 20 in assay [7] (setting [11]) and 100 in assay [7] (setting [12]). The “Kochia plant response rating” value in assay [8] (setting [11]) stood at 40; in assay [8] (setting [12]), 100.

Take `CCOc1cc(C(=O)NC2CC2)nn1Cc1ccnc(OC(F)F)c1` [Compound 133]: the “Blackgrass plant response rating” value in assay [6] (setting [9]) turned out to be 100; in assay [6] (setting [10]), 90. The “Italian Ryegrass plant response rating” value in assay [7] (setting [11]) is given as 40; in assay [7] (setting [12]) it was 90. Moreover, the “Kochia plant response rating” value in assay [8] (setting [11]) and in assay [8] (setting [12]) was 100 throughout.

`CCc1cc(C(=O)NCC(F)(F)F)nn1Cc1cc(OC(F)F)nn1C` [Compound 206]: the “Blackgrass plant response rating” value in assay [6] (setting [9]) is recorded as 50; in assay [6] (setting [10]) it was 0. Further, the “Italian Ryegrass plant response rating (0 to 100 scale)” value in assay [7] (setting [13]) is reported as 0. Moreover, the “Italian Ryegrass plant response rating” value in assay [7] (setting [12]) came to 20. Also, the “Kochia plant response rating (0 to 100 scale)” value in assay [8] (setting [13]) is on record as 50.
